{"source": "patent US8580794B2", "about": "(AbbVie Inc., priority 2009, dated 2013)"}
{"target": "GST-Bc1-2 (Homo sapiens, UniProt P10415)", "sequence (P10415 whole entry)": "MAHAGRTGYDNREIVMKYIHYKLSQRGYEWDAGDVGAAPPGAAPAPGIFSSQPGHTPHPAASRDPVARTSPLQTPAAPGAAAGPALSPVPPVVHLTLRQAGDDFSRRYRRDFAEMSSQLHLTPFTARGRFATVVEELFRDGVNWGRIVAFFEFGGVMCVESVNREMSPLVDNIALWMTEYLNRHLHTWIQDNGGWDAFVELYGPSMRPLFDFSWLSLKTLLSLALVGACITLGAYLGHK", "experiment": "Time Resolved-Fluorescence Resonance Energy Transfer (TR-FRET) Bcl-2 binding assay with F-Bak peptide probe", "conditions": "GST-Bcl-2 1 nM, F-Bak probe 100 nM, Tb-anti-GST 1 nM; '<' = below limit of detection; read-out: TR-FRET Bcl-2 Binding Ki", "units": {"Ki": "nM"}}
{"smiles": "CC1(C)CCC(CN2CCN(c3ccc(C(=O)NS(=O)(=O)c4ccc(OC[C@H]5CC[C@H](O)CC5)c(Cl)c4)c(Oc4cnc5[nH]ccc5c4)c3)CC2)=C(c2ccc(Cl)cc2)C1", "note": "[Example 305, N-({3-chloro-4-[(trans-4-hydroxycyclohexyl)methoxy]phenyl}sulfonyl)-4-(4-{[2-(4-chlorophenyl)-4,4-dimethylcyclohex-1-en-1-yl]methyl}piperazin-1-yl)-2-(1H-pyrrolo[2,3-b]pyridin-5-yloxy)benzamide]", "Ki": 0.033}
{"smiles": "CC(C)N1CCC(Nc2ccc(S(=O)(=O)NC(=O)c3ccc(N4CCN(CC5=C(c6ccc(Cl)cc6)CC(C)(C)CC5)CC4)cc3Oc3cnc4[nH]ccc4c3)cc2[N+](=O)[O-])CC1", "note": "[Example 226, 4-(4-{[2-(4-chlorophenyl)-4,4-dimethylcyclohex-1-en-1-yl]methyl}piperazin-1-yl)-N-({4-[(1-isopropylpiperidin-4-yl)amino]-3-nitrophenyl}sulfonyl)-2-(1H-pyrrolo[2,3-b]pyridin-5-yloxy)benzamide]", "Ki": 0.139}
{"smiles": "CC1(C)CC(c2ccc(Cl)cc2)=C(CN2CCN(c3ccc(C(=O)NS(=O)(=O)c4ccc(NCC5COCCO5)c([N+](=O)[O-])c4)c(Oc4cnc5[nH]ccc5c4)c3)CC2)CO1", "note": "(stereo not shown) [Example 31, 4-(4-{[4-(4-chlorophenyl)-6,6-dimethyl-5,6-dihydro-2H-pyran-3-yl]methyl}piperazin-1-yl)-N-({4-[(1,4-dioxan-2-ylmethyl)amino]-3-nitrophenyl}sulfonyl)-2-(1H-pyrrolo[2,3-b]pyridin-5-yloxy)benzamide]", "Ki": "< 0.01"}
{"smiles": "CC1(C)CCC(CN2CCN(c3ccc(C(=O)NS(=O)(=O)c4ccc(NN5CCN(C(=O)OC(C)(C)C)CC5)c([N+](=O)[O-])c4)c(Oc4cnc5[nH]ccc5c4)c3)CC2)=C(c2ccc(Cl)cc2)C1", "note": "[Example 232, tert-butyl 4-[(4-{[4-(4-{[2-(4-chlorophenyl)-4,4-dimethylcyclohex-1-en-1-yl]methyl}piperazin-1-yl)-2-(1H-pyrrolo[2,3-b]pyridin-5-yloxy)benzoyl]sulfamoyl}-2-nitrophenyl)amino]piperazine-1-carboxylate]", "Ki": 1.63}
{"smiles": "CN1CCC(F)(COc2ccc(S(=O)(=O)NC(=O)c3ccc(N4CCN(CC5=C(c6ccc(Cl)cc6)CC(C)(C)CC5)CC4)cc3Oc3cnc4[nH]ccc4c3)cc2S(=O)(=O)C(F)(F)F)CC1", "note": "[Example 230, 4-(4-{[2-(4-chlorophenyl)-4,4-dimethylcyclohex-1-en-1-yl]methyl}piperazin-1-yl)-N-({4-[(4-fluoro-1-methylpiperidin-4-yl)methoxy]-3-[(trifluoromethyl)sulfonyl]phenyl}sulfonyl)-2-(1H-pyrrolo[2,3-b]pyridin-5-yloxy)benzamide]", "Ki": 0.031}
{"smiles": "CC1(C)CCC(CN2CCN(c3ccc(C(=O)NS(=O)(=O)c4ccc(NC5CN(C(CF)CF)C5)c([N+](=O)[O-])c4)c(Oc4cnc5[nH]ccc5c4)c3)CC2)=C(c2ccc(Cl)cc2)C1", "note": "[Example 151, 4-(4-{[2-(4-chlorophenyl)-4,4-dimethylcyclohex-1-en-1-yl]methyl}piperazin-1-yl)-N-{[4-({1-[2-fluoro-1-(fluoromethyl)ethyl]azetidin-3-yl}amino)-3-nitrophenyl]sulfonyl}-2-(1H-pyrrolo[2,3-b]pyridin-5-yloxy)benzamide]", "Ki": 0.017}
{"smiles": "CN(C)CC(=O)N1CCC(COc2ncc(S(=O)(=O)NC(=O)c3ccc(N4CCN(CC5=C(c6ccc(Cl)cc6)CC(C)(C)CC5)CC4)cc3Oc3cnc4[nH]ccc4c3)cc2Cl)CC1", "note": "[Example 260, N-[(5-chloro-6-{[1-(N,N-dimethylglycyl)piperidin-4-yl]methoxy}pyridin-3-yl)sulfonyl]-4-(4-{[2-(4-chlorophenyl)-4,4-dimethylcyclohex-1-en-1-yl]methyl}piperazin-1-yl)-2-(1H-pyrrolo[2,3-b]pyridin-5-yloxy)benzamide]", "Ki": 0.016}
{"smiles": "CC1(C)CCC(CN2CCN(c3ccc(C(=O)NS(=O)(=O)c4ccc(NCC5CCN(S(C)(=O)=O)C5)c([N+](=O)[O-])c4)c(Oc4cnc5[nH]ccc5c4)c3)CC2)=C(c2ccc(Cl)cc2)C1", "note": "(stereo not shown) [Example 152, 4-(4-{[2-(4-chlorophenyl)-4,4-dimethylcyclohex-1-en-1-yl]methyl}piperazin-1-yl)-N-{[4-({[1-(methylsulfonyl)pyrrolidin-3-yl]methyl}amino)-3-nitrophenyl]sulfonyl}-2-(1H-pyrrolo[2,3-b]pyridin-5-yloxy)benzamide]", "Ki": "< 0.01"}
{"smiles": "CC1(C)CCC(CN2CCN(c3ccc(C(=O)NS(=O)(=O)c4ccc(O[C@H]5CC[C@H](N6CCOCC6)CC5)c([N+](=O)[O-])c4)c(Oc4cnc5[nH]ccc5c4)c3)CC2)=C(c2ccc(Cl)cc2)C1", "note": "[Example 60, Trans-4-(4-{[2-(4-chlorophenyl)-4,4-dimethylcyclohex-1-en-1-yl]methyl}piperazin-1-yl)-N-({4-[(4-morpholin-4-ylcyclohexyl)oxy]-3-nitrophenyl}sulfonyl)-2-(1H-pyrrolo[2,3-b]pyridin-5-yloxy)benzamide]", "Ki": "< 0.01"}
{"smiles": "CC1(C)CCC(CN2CCN(c3ccc(C(=O)NS(=O)(=O)c4ccc(N[C@H]5CCN(C6CC6)C5)c([N+](=O)[O-])c4)c(Oc4cnc5[nH]ccc5c4)c3)CC2)=C(c2ccc(Cl)cc2)C1", "note": "[Example 142, 4-(4-{[2-(4-chlorophenyl)-4,4-dimethylcyclohex-1-en-1-yl]methyl}piperazin-1-yl)-N-[(4-{[(3S)-1-cyclopropylpyrrolidin-3-yl]amino}-3-nitrophenyl)sulfonyl]-2-(1H-pyrrolo[2,3-b]pyridin-5-yloxy)benzamide]", "Ki": 0.13}
{"smiles": "CC1(C)CCC(CN2CCN(c3ccc(C(=O)NS(=O)(=O)c4ccc(NC[C@H]5CC[C@H](C#N)CC5)c([N+](=O)[O-])c4)c(Oc4cnc5[nH]ccc5c4)c3)CC2)=C(c2ccc(Cl)cc2)C1", "note": "[Example 276, 4-(4-{[2-(4-chlorophenyl)-4,4-dimethylcyclohex-1-en-1-yl]methyl}piperazin-1-yl)-N-[(4-{[(trans-4-cyanocyclohexyl)methyl]amino}-3-nitrophenyl)sulfonyl]-2-(1H-pyrrolo[2,3-b]pyridin-5-yloxy)benzamide]", "Ki": "< 0.01"}
{"smiles": "CC1(C)CCC(CN2CCN(c3ccc(C(=O)NS(=O)(=O)c4ccc(OC[C@H]5COCCO5)c([N+](=O)[O-])c4)c(Oc4cnc5[nH]ccc5c4)c3)CC2)=C(c2ccc(Cl)cc2)C1", "note": "[Example 30, 4-(4-{[2-(4-chlorophenyl)-4,4-dimethylcyclohex-1-en-1-yl]methyl}piperazin-1-yl)-N-({4-[(2R)-1,4-dioxan-2-ylmethoxy]-3-nitrophenyl}sulfonyl)-2-(1H-pyrrolo[2,3-b]pyridin-5-yloxy)benzamide]", "Ki": "< 0.01"}
{"smiles": "CC(C)c1cc(S(=O)(=O)NC(=O)c2ccc(N3CCN(CC4=C(c5ccc(Cl)cc5)CC(C)(C)CC4)CC3)cc2Oc2cnc3[nH]ccc3c2)cnc1OCC1CCOCC1", "note": "[Example 85, 4-(4-{[2-(4-chlorophenyl)-4,4-dimethylcyclohex-1-en-1-yl]methyl}piperazin-1-yl)-N-{[5-isopropyl-6-(tetrahydro-2H-pyran-4-ylmethoxy)pyridin-3-yl]sulfonyl}-2-(1H-pyrrolo[2,3-b]pyridin-5-yloxy)benzamide]", "Ki": 0.391}
{"smiles": "COC(=O)N1CCOC(CNc2ccc(S(=O)(=O)NC(=O)c3ccc(N4CCN(CC5=C(c6ccc(Cl)cc6)CC(C)(C)CC5)CC4)cc3Oc3cnc4[nH]ccc4c3)cc2[N+](=O)[O-])C1", "note": "(stereo not shown) [Example 317, methyl 2-{[(4-{[4-(4-{[2-(4-chlorophenyl)-4,4-dimethylcyclohex-1-en-1-yl]methyl}piperazin-1-yl)-2-(1H-pyrrolo[2,3-b]pyridin-5-yloxy)benzoyl]sulfamoyl}-2-nitrophenyl)amino]methyl}morpholine-4-carboxylate]", "Ki": "< 0.01"}
{"smiles": "CC1(C)CCC(CN2CCN(c3ccc(C(=O)NS(=O)(=O)c4ccc(OCC5(F)CCN(S(C)(=O)=O)CC5)c([N+](=O)[O-])c4)c(Oc4cnc5[nH]ccc5c4)c3)CC2)=C(c2ccc(Cl)cc2)C1", "note": "[Example 194, 4-(4-{[2-(4-chlorophenyl)-4,4-dimethylcyclohex-1-en-1-yl]methyl}piperazin-1-yl)-N-[(4-{[4-fluoro-1-(methylsulfonyl)piperidin-4-yl]methoxy}-3-nitrophenyl)sulfonyl]-2-(1H-pyrrolo[2,3-b]pyridin-5-yloxy)benzamide]", "Ki": "< 0.01"}
{"smiles": "O=C(NS(=O)(=O)c1ccc(N[C@H]2CC[C@H](N3CCOCC3)CC2)c([N+](=O)[O-])c1)c1ccc(N2CCN(CC3=C(c4ccc(Cl)cc4)CCC4(CCCC4)C3)CC2)cc1Oc1cnc2[nH]ccc2c1", "note": "[Example 71, Trans-4-(4-{[8-(4-chlorophenyl)spiro[4.5]dec-7-en-7-yl]methyl}piperazin-1-yl)-N-({4-[(4-morpholin-4-ylcyclohexyl)amino]-3-nitrophenyl}sulfonyl)-2-(1H-pyrrolo[2,3-b]pyridin-5-yloxy)benzamide]", "Ki": 0.01}
{"smiles": "CC1(C)CC(c2ccc(Cl)cc2)=C(CN2CCN(c3ccc(C(=O)NS(=O)(=O)c4ccc(N[C@H]5CC[C@H](N6CCOCC6)CC5)c(S(=O)(=O)C(F)(F)F)c4)c(Oc4cnc5[nH]ccc5c4)c3)CC2)CO1", "note": "[Example 44, Trans-4-(4-{[4-(4-chlorophenyl)-6,6-dimethyl-5,6-dihydro-2H-pyran-3-yl]methyl}piperazin-1-yl)-N-({4-[(4-morpholin-4-ylcyclohexyl)amino]-3-[(trifluoromethyl)sulfonyl]phenyl}sulfonyl)-2-(1H-pyrrolo[2,3-b]pyridin-5-yloxy)benzamide]", "Ki": "< 0.01"}
{"target": "GST-Bc1-2 (Homo sapiens, UniProt P10415)", "experiment": "Time Resolved-Fluorescence Resonance Energy Transfer (TR-FRET) Bcl-2 binding assay with F-Bak peptide probe", "conditions": "TR-FRET Bcl-2 Binding Ki", "units": {"Ki": "nM"}}
{"smiles": "CC1(C)CCC(CN2CCN(c3ccc(C(=O)NS(=O)(=O)c4ccc(NCC5CCOCC5)c(S(=O)(=O)C(F)(F)F)c4)c(Oc4ccc5[nH]ccc5c4)c3)CC2)=C(c2ccc(Cl)cc2)C1", "note": "[Example 94, 4-(4-{[2-(4-chlorophenyl)-4,4-dimethylcyclohex-1-en-1-yl]methyl}piperazin-1-yl)-2-(1H-indol-5-yloxy)-N-({4-[(tetrahydro-2H-pyran-4-ylmethyl)amino]-3-[(trifluoromethyl)sulfonyl]phenyl}sulfonyl)benzamide]", "Ki": 0.678}
{"target": "GST-Bc1-2 (Homo sapiens, UniProt P10415)", "experiment": "Time Resolved-Fluorescence Resonance Energy Transfer (TR-FRET) Bcl-2 binding assay with F-Bak peptide probe", "conditions": "read-out: Bcl-2 FRET ki", "units": {"Ki": "nM"}}
{"smiles": "CC1(C)CCC(CN2CCN(c3ccc(C(=O)NS(=O)(=O)c4ccc(NCC5CCOCC5)c(S(=O)(=O)C(F)(F)F)c4)c(Oc4ccc5[nH]ccc5c4)c3)CC2)=C(c2ccc(Cl)cc2)C1", "note": "[Example 94, 4-(4-{[2-(4-chlorophenyl)-4,4-dimethylcyclohex-1-en-1-yl]methyl}piperazin-1-yl)-2-(1H-indol-5-yloxy)-N-({4-[(tetrahydro-2H-pyran-4-ylmethyl)amino]-3-[(trifluoromethyl)sulfonyl]phenyl}sulfonyl)benzamide]", "Ki": 0.678}
